This note sets out measurements from ChEMBL document CHEMBL1201862, “PubChem BioAssay data set” (2004).

Some test systems named below: EKVX; SN12C; OVCAR-4; MCF7; HT-29; SF-539; T47D; CAKI-1; ACHN; U-251; SF-268; NCI-H23; RXF 393; IGROV-1; HCT-116; M14; SK-MEL-28; HCC 2998; HL-60; HOP-92.
Holding throughout (test): NCI tumour cell line growth inhibition, 48 h

Each structure is given as a SMILES string.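 Each compound was tested at five concentrations against cells in 96-well plates for 48 hours. GI50 is the concentration that inhibits growth by half.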 Active and inactive are the calls of the source. No stated cut-off is given here; in the data, active = GI50 up to about 1.1 µM and inactive = higher. Some results are limits rather than exact numbers.

For the compound `COc1ccc2oc(=N)c(C(=O)Nc3ccccc3)cc2c1`, the GI50 with EKVX was 26.8 µM (inactive); with SN12C, 36.2 µM (inactive); in the experiment on OVCAR-4 it was 45.6 µM (inactive); in the experiment with MCF7, 12.8 µM (inactive); with HT-29, 64.6 µM (inactive); in the experiment with SF-539 it was 20.3 µM (inactive). Moreover, the GI50 with T47D was 4.41 µM (inactive); in the experiment on CAKI-1, 5.61 µM (inactive); in the experiment on ACHN it was 13.7 µM (inactive); in the experiment on U-251, 19.1 µM (inactive); in the experiment on SF-268, 20.6 µM (inactive); with NCI-H23, 15.2 µM (inactive). Further, the GI50 was 17.3 µM (inactive) with RXF 393; 17.9 µM (inactive) in the experiment on IGROV-1; 25.7 µM (inactive) in the experiment with HCT-116; 38.1 µM (inactive) with M14; 30 µM (inactive) with SK-MEL-28.

Turning to `CC(C)=CCC[C@]1(C)CC[C@]2(C)C3CCC(=C(C)C)[C@@H](CCCO)[C@]3(C)CC[C@@]2(C)C1` (stereo not given in full), the GI50 in the experiment with EKVX was 46.5 µM (inactive); in the experiment on SN12C it was 54.5 µM (inactive); in the experiment with OVCAR-4 it was > 100 µM (inactive); with MCF7, 24 µM (inactive); with HT-29 it was 40.2 µM (inactive); in the experiment with T47D, 4.92 µM (inactive). For the same compound, the GI50 was 95.7 µM (inactive) in the experiment on CAKI-1; 25.5 µM (inactive) in the experiment on HCC 2998; 83 µM (inactive) in the experiment with ACHN; 23.6 µM (inactive) in the experiment on U-251; 82 µM (inactive) in the experiment on SF-268; 84.9 µM (inactive) in the experiment on NCI-H23. The GI50 in the experiment on HL-60 was 33.8 µM (inactive); in the experiment with IGROV-1 it was 18.8 µM (inactive); in the experiment with HCT-116, 36.7 µM (inactive); in the experiment on M14 it was 30.3 µM (inactive); in the experiment on SK-MEL-28, > 100 µM (inactive).

For the compound `COCC1OC(OC2OCC3OC4(OCC(O)(C(C)OC)C5OCOC54)OC3C2OC)C(OC)C(O)C1OC1OC(C)C(OC)C(OC2OC(C)C3OC4(CC(O)C(OC5CC(OC6CC(C)([N+](=O)[O-])C(OC)C(C)O6)C(OC(=O)c6c(C)c(Cl)c(O)c(Cl)c6OC)C(C)O5)C(C)O4)OC3(C)C2O)C1O` (stereo not given), the GI50 in the experiment with EKVX, in the experiment on SN12C, in the experiment on OVCAR-4, in the experiment with HOP-92, in the experiment with HT-29 and with SF-539 was > 100 µM (inactive) in each case. Further, the GI50 with T47D, with CAKI-1, with HCC 2998, in the experiment on ACHN, in the experiment on U-251 and in the experiment on SF-268 was > 100 µM (inactive) each time. For the same compound, the GI50 with NCI-H23, in the experiment on RXF 393, with HL-60, in the experiment with IGROV-1, in the experiment with HCT-116 and in the experiment on M14 was > 100 µM (inactive) in each case. The GI50 in the experiment on SK-MEL-28 was > 100 µM (inactive).

With `CC(=O)OC12c3ccccc3C(c3ccccc31)C1C(=O)N(Nc3ccccc3)C(=O)C12` (stereo not given), the GI50 in the experiment on EKVX, in the experiment with SN12C, in the experiment with OVCAR-4, in the experiment on MCF7, in the experiment with HT-29 and in the experiment on SF-539 was > 100 µM (inactive) throughout. Besides, the GI50 in the experiment on T47D, in the experiment with CAKI-1, with HCC 2998, in the experiment with ACHN, in the experiment on U-251 and in the experiment with SF-268 was > 100 µM (inactive) each time. Also, the GI50 with NCI-H23, in the experiment with RXF 393, with HL-60, with IGROV-1, with HCT-116 and in the experiment on M14 was > 100 µM (inactive) throughout. In addition, the GI50 in the experiment with SK-MEL-28 is > 100 µM (inactive).

Turning to `C=C(CO[Si](C)(C)C(C)(C)C)C(C)=O`, the GI50 with EKVX was > 100 µM (inactive); in the experiment with SN12C, 27.7 µM (inactive); with OVCAR-4, 21 µM (inactive); in the experiment with MCF7 it was 23.3 µM (inactive); in the experiment with HT-29 it was 19.5 µM (inactive); in the experiment on SF-539 it was 39.1 µM (inactive). Moreover, the GI50 is 21.6 µM (inactive) in the experiment on T47D; 22.3 µM (inactive) in the experiment on CAKI-1; 26.1 µM (inactive) in the experiment with HCC 2998; 26.5 µM (inactive) in the experiment with ACHN; > 63.2 µM (inactive) in the experiment on U-251; 31.4 µM (inactive) with SF-268. In addition, the GI50 in the experiment on NCI-H23 is 26.3 µM (inactive); in the experiment with RXF 393, 14.5 µM (inactive); with HL-60, 13.8 µM (inactive); in the experiment on IGROV-1, 25.5 µM (inactive); in the experiment on HCT-116, 13.3 µM (inactive); in the experiment on M14 it was 13.1 µM (inactive). Also, the GI50 in the experiment on SK-MEL-28 is 17.8 µM (inactive).

Regarding `CC1OC(OC2CC(O)(C(=O)CO)Cc3c(O)c4c(c(O)c32)C(=O)c2ccccc2C4=O)CC(N)C1O` (stereo not given), the GI50 is 0.158 µM (active) in the experiment on EKVX; < 0.0112 µM (active) in the experiment with SN12C; 0.0813 µM (active) in the experiment with OVCAR-4; < 0.0338 µM (active) in the experiment on HOP-92; < 0.0135 µM (active) in the experiment on HT-29; < 0.0112 µM (active) with SF-539. For the same compound, the GI50 was < 0.01 µM (active) with T47D; < 0.01 µM (active) in the experiment on CAKI-1; < 0.01 µM (active) in the experiment with HCC 2998; < 0.01 µM (active) in the experiment with ACHN; < 0.01 µM (active) in the experiment on U-251; < 0.0163 µM (active) with SF-268. In addition, the GI50 in the experiment on NCI-H23 was 0.0162 µM (active); with RXF 393 it was 0.0162 µM (active); with HL-60, < 0.01 µM (active); in the experiment with IGROV-1, 0.12 µM (active); in the experiment on HCT-116, < 0.01 µM (active); in the experiment on M14, < 0.015 µM (active). Also, the GI50 in the experiment with SK-MEL-28 was 0.0573 µM (active).

Regarding `O=C(O)c1ccccc1Sc1ccc(C=C2NC(=S)N(c3ccccc3)C2=O)s1`, the GI50 was 97.3 µM (inactive) with EKVX; > 100 µM (inactive) with SN12C; 24.9 µM (inactive) with OVCAR-4; > 100 µM (inactive) with MCF7; > 100 µM (inactive) in the experiment on HT-29; 77.6 µM (inactive) in the experiment with T47D. Besides, the GI50 with CAKI-1 is 44.4 µM (inactive); in the experiment with HCC 2998, 97.5 µM (inactive); in the experiment on ACHN it was 39.6 µM (inactive); with U-251 it was > 100 µM (inactive); in the experiment on SF-268, > 100 µM (inactive); with NCI-H23, > 100 µM (inactive). The GI50 in the experiment with RXF 393 is > 100 µM (inactive); with HL-60 it was 25.2 µM (inactive); in the experiment with IGROV-1, > 100 µM (inactive); with HCT-116, 72.8 µM (inactive); in the experiment with SK-MEL-28, > 100 µM (inactive).

As to `O=c1ccc2c(Cl)sc(Cl)c2[nH]1`, the GI50 with EKVX was 98.4 µM (inactive); in the experiment on SN12C, > 100 µM (inactive); in the experiment with OVCAR-4, > 100 µM (inactive); in the experiment on MCF7, > 100 µM (inactive); in the experiment with HT-29, > 100 µM (inactive); in the experiment on T47D it was > 100 µM (inactive). Besides, the GI50 in the experiment on CAKI-1, in the experiment with HCC 2998, in the experiment with ACHN, with U-251, with SF-268 and in the experiment with NCI-H23 was > 100 µM (inactive) each time. The GI50 in the experiment on RXF 393, in the experiment with IGROV-1, in the experiment with HCT-116, in the experiment with M14 and with SK-MEL-28 was > 100 µM (inactive) each time.

In the case of `C=C(CCC=C(C)C)C1CC=C(C)CC1` (stereo not given), the GI50 with EKVX is 29.2 µM (inactive); in the experiment with SN12C it was 19.7 µM (inactive); in the experiment on MCF7, 19.8 µM (inactive); in the experiment on SF-539, 25.9 µM (inactive); in the experiment with T47D, 28.1 µM (inactive); with CAKI-1, 19.7 µM (inactive). Besides, the GI50 in the experiment with ACHN was 17.8 µM (inactive); in the experiment on U-251, 18 µM (inactive); with SF-268, 28.8 µM (inactive); with NCI-H23, 17.7 µM (inactive); in the experiment with RXF 393 it was 13.9 µM (inactive); in the experiment on IGROV-1, 13.6 µM (inactive). In addition, the GI50 is 19.4 µM (inactive) with HCT-116 and 62.4 µM (inactive) in the experiment on M14.

For the compound `O=C1c2ccsc2-c2cccc3cccc1c23.O=C1c2sccc2-c2cccc3cccc1c23`, the GI50 in the experiment on EKVX was 0.0132 µM (active); in the experiment with SN12C, 6.67 µM (inactive); in the experiment on OVCAR-4 it was 11 µM (inactive); with MCF7 it was 8.41 µM (inactive); in the experiment with HT-29 it was 2.11 µM (inactive); in the experiment with SF-539, 6.22 µM (inactive). Further, the GI50 in the experiment on T47D is 0.318 µM (active); in the experiment with CAKI-1, 2.26 µM (inactive); with ACHN, 2.37 µM (inactive); in the experiment on U-251, 4.62 µM (inactive); in the experiment with SF-268, 7.89 µM (inactive); in the experiment with RXF 393, 2.49 µM (inactive). In addition, the GI50 is 11.2 µM (inactive) with HL-60; 6.59 µM (inactive) with IGROV-1; 2.78 µM (inactive) in the experiment with HCT-116; 18.9 µM (inactive) in the experiment on M14; 21.1 µM (inactive) in the experiment on SK-MEL-28.

For the compound `CCc1c2c(nc3ccc(O)cc13)-c1cc3c(c(=O)n1C2)COC(=O)[C@]3(O)CC` [7-ETHYL-10-HYDROXYCAMPTOTHECIN], the GI50 in the experiment with EKVX is 0.178 µM (active); with SN12C it was < 0.001 µM (active); with OVCAR-4, 0.00227 µM (active); with MCF7, 0.01 µM (active); with SF-539 it was < 0.001 µM (active); with T47D, < 0.001 µM (active). Further, the GI50 in the experiment on CAKI-1, with ACHN, with U-251, in the experiment on SF-268, in the experiment with NCI-H23 and with HL-60 was < 0.001 µM (active) in each case. The GI50 with HCT-116 was 0.402 µM (active); in the experiment on M14, < 0.001 µM (active); with SK-MEL-28 it was 0.0194 µM (active).
